Measured values: patent US20240409536A1, “COMPOUNDS AND METHODS FOR MODULATING SPLICING” (REMIX THERAPEUTICS INC., priority 2021, published 2024)
Where a name gives a salt, the structure may show the parent alone.

Legend:
[1] = tested on: K562 cells; test: Cell Titer Glo 2.0 cell viability assay in K562 cells; conditions: 72 hours
[2] = tested on: HiBiT-tagged MYB protein; test: HiBiT protein abundance assay, MYB (K562 HiBiT knock-in cells); assay type: cell-based, human; conditions: 24 hours
How it was run: (§1)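 K562 cells with endogenous HiBiT knock-in tag, 10-point 3-fold dilutions (top 10 μM final, ≤0.25% DMSO), 24 h at 37 °C. Lytic Nano-Glo HiBiT luminescence, normalized to DMSO and unmodified K562 baselines; IC50 is concentration giving 50% protein abundance from four-parameter fit.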

[3] = tested on: Target C; test: HiBiT protein abundance assay, Target C (K562 HiBiT knock-in cells); assay type: cell-based, human; conditions: 24 hours
How it was run: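 K562 knock-in cells (10000/well, IMDM+1% FBS) treated 24 h at 37 °C with 10-point 3-fold dilutions, top final 10 μM, DMSO ≤0.25%. HiBiT lytic luminescence read; response normalized to unmodified K562 and DMSO-treated controls. IC50 interpolated at 50% abundance by four-parameter logistic fit.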

[4] = tested on: HiBiT-tagged HTT protein; test: HiBiT protein abundance assay, HTT (K562 HiBiT knock-in cells); assay type: cell-based, human; conditions: 24 hours
How it was run: as §1

[5] = tested on: SMN2 mRNA; test: Gene panel canonical junction qPCR assay, SMN2 CJ mRNA decrease; assay type: cell-based, human; conditions: Homo sapiens, canonical junction qPCR, read-out: SMN2 IC50 (decrease in CJ mRNA levels)
How it was run: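 IC50 values describe loss of canonical-junction transcript, fitted by 4-parameter logistic to percent response derived from fixed ΔCt windows. Read-out: RT-qPCR on lysates of compound-treated K562 or A673 cells, probes overlapping the exon junction, ΔΔCt versus housekeeping gene and DMSO control.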

SMILES | Viability [1] | IC50 [2] | IC50 [3] | IC50 [4] | IC50 [5]
Cc1cn2cc(NC(=O)c3ccc(N4CCNC(C)C4)c4ccnnc34)cc(F)c2n1 (centres unmarked) [Compound 128] | B (B represents 100-1000 nM) | < 100 nM | 100 to 1000 nM | 100 to 1000 nM | < 100 nM
CCC1CN(c2ccc(C(=O)Nc3cc(F)c4nc(C)cn4c3)c3nnccc23)CCN1 (centres unmarked) [Compound 130] | B (B represents 100-1000 nM) | < 100 nM | 1000 to 10000 nM | 1000 to 10000 nM | < 100 nM
Cc1cn2cc(NC(=O)c3ccc(N4CC5(CNC5)C4)c4ccnnc34)cc(F)c2n1 [Compound 131] | B (B represents 100-1000 nM) | < 100 nM | 1000 to 10000 nM | 100 to 1000 nM | < 100 nM
Cc1cn2cc(NC(=O)c3ccc(N4CCC(N5CCCC5)C4)c4ccnnc34)cc(F)c2n1 (centres unmarked) [Compound 133] | C (C represents 1000-9999 nM) | 100 to 1000 nM | 1000 to 10000 nM | 1000 to 10000 nM | < 100 nM
Cc1cn2cc(NC(=O)c3ccc(N4CCC(N(C)C)C4)c4ccnnc34)cc(F)c2n1 (centres unmarked) [Compound 134] | B (B represents 100-1000 nM) | < 100 nM | 1000 to 10000 nM | 1000 to 10000 nM | < 100 nM
Cc1cn2cc(NC(=O)c3ccc(N4CCC(N(C)C)CC4)c4ccnnc34)cc(F)c2n1 [Compound 137] | A (A represents <100 nM) | < 100 nM | 100 to 1000 nM | 100 to 1000 nM | < 100 nM
Cc1cn2cc(NC(=O)c3ccc(N4CCC(NC(C)(C)C)CC4)c4ccnnc34)cc(F)c2n1 [Compound 138] | C (C represents 1000-9999 nM) | 100 to 1000 nM | 1000 to 10000 nM | 1000 to 10000 nM | < 100 nM
Cc1cn2cc(NC(=O)c3ccc(C4CCN(C)CC4)c4ccnnc34)cc(F)c2n1 [Compound 140] | B (B represents 100-1000 nM) | < 100 nM | > 10000 nM | 100 to 1000 nM | < 100 nM
CCN1CCC(c2ccc(C(=O)Nc3cc(F)c4nc(C)cn4c3)c3nnccc23)CC1 [Compound 141] | C (C represents 1000-9999 nM) | < 100 nM | 1000 to 10000 nM | 1000 to 10000 nM | < 100 nM
Cc1cn2cc(NC(=O)c3ccc(N4CCN[C@H](C)C4)c4ccnnc34)cc(F)c2n1 [Compound 146] | A (A represents <100 nM) | < 100 nM | 1000 to 10000 nM | 100 to 1000 nM | < 100 nM
Cc1cn2cc(NC(=O)c3ccc(N4CCN(C)[C@H](C)C4)c4ccnnc34)cc(F)c2n1 [Compound 149] | B (B represents 100-1000 nM) | < 100 nM | 1000 to 10000 nM | 1000 to 10000 nM | < 100 nM
Cc1cn2cc(NC(=O)c3ccc(N4CCN(C)[C@@H](C)C4)c4ccnnc34)cc(F)c2n1 [Compound 150] | B (B represents 100-1000 nM) | 100 to 1000 nM | 1000 to 10000 nM | 1000 to 10000 nM | < 100 nM
CC[C@@H]1CN(c2ccc(C(=O)Nc3cc(F)c4nc(C)cn4c3)c3nnccc23)CCN1 [Compound 151] | B (B represents 100-1000 nM) | < 100 nM | 1000 to 10000 nM | 1000 to 10000 nM | < 100 nM
CC[C@H]1CN(c2ccc(C(=O)Nc3cc(F)c4nc(C)cn4c3)c3nnccc23)CCN1 [Compound 152] | B (B represents 100-1000 nM) | < 100 nM | > 10000 nM | 1000 to 10000 nM | < 100 nM
Cc1cn2cc(NC(=O)c3ccc(N4CCN5CCC[C@@H]5C4)c4ccnnc34)cc(F)c2n1 [Compound 153] | B (B represents 100-1000 nM) | < 100 nM | 1000 to 10000 nM | 1000 to 10000 nM | < 100 nM
Cc1cn2cc(NC(=O)c3ccc(N4CCN5CCC[C@H]5C4)c4ccnnc34)cc(F)c2n1 [Compound 154] | B (B represents 100-1000 nM) | < 100 nM | 1000 to 10000 nM | 1000 to 10000 nM | < 100 nM
Cc1cn2cc(NC(=O)c3ccc(N4C[C@H]5C[C@@H]4C5N(C)C)c4ccnnc34)cc(F)c2n1 (some centres unmarked) [Compound 155] | B (B represents 100-1000 nM) | > 10000 nM | > 10000 nM | > 10000 nM | 100 to 1000 nM
Cc1cc2c(N3CCNCC3)ccc(C(=O)Nc3cc(F)c4nc(C)cn4c3)c2nn1 [Compound 159] | A (A represents <100 nM) | < 100 nM | 1000 to 10000 nM | 100 to 1000 nM | < 100 nM
Cc1cn2cc(NC(=O)c3ccc(N4C[C@@H](C)N[C@@H](C)C4)c4ccnnc34)cc(F)c2n1 [Compound 161, 5-(3,5-dimethylpiperazin-1-yl)-N-{8-fluoro-2-methylimidazo[1,2-a]pyridin-6-yl}cinnoline-8-carboxamide 2,2,2-trifluoroacetate] | B (B represents 100-1000 nM) | < 100 nM | 1000 to 10000 nM | 1000 to 10000 nM | < 100 nM
Cc1ccc2c(N3CCNCC3)ccc(C(=O)Nc3cc(F)c4nc(C)cn4c3)c2n1 [Compound 162, N-{8-fluoro-2-methylimidazo[1,2-a]pyridin-6-yl}-2-methyl-5-(piperazin-1-yl)quinoline-8-carboxam-ide, trifluoroacetic acid] | B (B represents 100-1000 nM) | < 100 nM | 1000 to 10000 nM | 100 to 1000 nM | < 100 nM
CC(=O)c1cc(NC(=O)c2ccc(N3CCNCC3)c3ccnnc23)cn2cc(C)nc12 [Compound 163, N-{8-acetyl-2-methylimidazo[1,2-a]pyridin-6-yl}-5-(piperazin-1-yl)cinnoline-8-carboxamide] | C (C represents 1000-9999 nM) | 1000 to 10000 nM | > 10000 nM | > 10000 nM | < 100 nM
Cc1cn2cc(NC(=O)c3ccc(N4CCNCC4)c4ccnnc34)nc(C)c2n1 [Compound 164, N-{2,8-dimethylimidazo[1,2-a]pyrazin-6-yl}-5-(piperazin-1-yl)cinnoline-8-carboxamide 2,2,2-trifluoroacetate] | B (B represents 100-1000 nM) | 100 to 1000 nM | > 10000 nM | 1000 to 10000 nM | < 100 nM
Cc1cn2cc(NC(=O)c3ccc(N4CCNCC4)c4cccnc34)cc(F)c2n1 [Compound 165, N-{8-fluoro-2-methylimidazo[1,2-a]pyridin-6-yl}-5-(piperazin-1-yl)quinoline-8-carboxamide] | A (A represents <100 nM) | < 100 nM | 1000 to 10000 nM | 100 to 1000 nM | < 100 nM
Cc1cn2cc(NC(=O)c3ccc(N4CCNCC4)c4nnccc34)cc(F)c2n1 [Compound 166, N-(8-fluoro-2-methylimidazo[1,2-a]pyridin-6-yl)-8-(piperazin-1-yl)cinnoline-5-carboxamide 2,2,2-trifluoroacetate] | D (D represents greater than 10 μM in K562 cells) | > 10000 nM | > 10000 nM | > 10000 nM | > 10000 nM
Cc1cn2cc(NC(=O)c3ccc(N4CCNCC4)c4ccnnc34)cc(C#N)c2n1 [Compound 167, N-{8-cyano-2-methylimidazo[1,2-a]pyridin-6-yl}-5-(piperazin-1-yl)cinnoline-8-carboxamide trifluoroacetic acid salt] | B (B represents 100-1000 nM) | 100 to 1000 nM | 1000 to 10000 nM | 1000 to 10000 nM | < 100 nM
